Earlier results on one molecule are cited in US11865103B2, “Methods of treating disorders associated with glycosylation defective proteins” (CASE WESTERN RESERVE UNIVERSITY, priority 2016, dated 2024).

The subject of this data set is TgAC1; Clrn1^N48K/N48K mouse model. Particulars: cited from earlier work.

Molecules are shown by their SMILES.

With `CC(C)(O)Cn1nc(-c2ccccc2)c2c(Cl)c(-c3ccccc3)nnc21` [BF844], the “Effect on hearing loss” value was “mitigate hearing loss”.
